Reference: PubChem BioAssay (NCI)
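Cultured in 96-well plates, cells were exposed to test compound for 48 hours across five concentrations. TGI marks complete inhibition of growth.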

Columns and labels:
Assay in all cases: NCI-60 cell line screen, 48 h
786-0 renal = tested on: 786-0 renal
A549 NSCLC = tested on: A549 NSCLC
CAKI-1 renal = tested on: CAKI-1 renal
DU-145 prostate = tested on: DU-145 prostate
EKVX NSCLC = tested on: EKVX NSCLC
HT29 colon = tested on: HT29 colon
MALME-3M melanoma = tested on: MALME-3M melanoma
MOLT-4 leukemia = tested on: MOLT-4 leukemia
NCI/ADR-RES ovarian = tested on: NCI/ADR-RES ovarian
OVCAR-3 ovarian = tested on: OVCAR-3 ovarian

Compound	TGI (786-0 renal)	TGI (A549 NSCLC)	TGI (CAKI-1 renal)	TGI (DU-145 prostate)	TGI (EKVX NSCLC)	TGI (HT29 colon)	TGI (MALME-3M melanoma)	TGI (MOLT-4 leukemia)	TGI (NCI/ADR-RES ovarian)	TGI (OVCAR-3 ovarian)
O=S(=O)(c1ccccc1)c1cccc2c1NCCC2	> 100 µM	> 100 µM	> 100 µM	> 100 µM	> 100 µM	> 100 µM	> 100 µM	> 100 µM	> 100 µM	> 100 µM
[N-]=[N+]=NC(c1ccccc1)(c1ccccc1)c1ccccc1	31.5 µM	34.3 µM	46.7 µM	36.1 µM	27.8 µM	32.6 µM	29.5 µM	44.8 µM	34.1 µM	42.5 µM
Cc1cc(-c2nc3ccc(F)cc3s2)ccc1NC(=O)[C@H](C)N	16.9 µM	24.6 µM	22.1 µM	26 µM	23 µM	8.38 µM	36.2 µM	12.8 µM	28.5 µM	23.7 µM
NS(=O)(=O)c1nnc(NC(=O)Nc2ccc(Cl)c(Cl)c2)s1	67.5 µM	> 100 µM	78.8 µM	> 100 µM	94.6 µM	37.9 µM	39.9 µM	84.2 µM	55.7 µM	> 100 µM
O=[N+]([O-])c1ccc2[nH]nc(OCc3ccccc3Cl)c2c1	59.4 µM	> 100 µM	> 100 µM	> 100 µM	> 100 µM	> 100 µM	> 100 µM	> 100 µM	> 100 µM	73.9 µM
